Measurements taken from US8309550B2, “Kinase inhibitors and their use as pharmaceutical agents” (Shanghai Genomics, Inc., priority 2011, dated 2012).

Columns and labels:
CDK2/cyclinA = molecular target: T1, CDK2/cyclinA (Homo sapiens, UniProt P24941); assay: Z'-LYTE kinase assay CDK2/cyclinA; format: biochemical; settings: Table III; read-out: Target biochemical activity IC50 CDK2
T1 construct: purchased Invitrogen PV3267
Experimental: (§1) Kinase assays. The compounds from the example above were tested for their ability to inhibit kinases. Recombinant human CDK2/cyclinA (PV3267), CDK1/cyclinB (PV3292), CDK5/p35 (PV3000) and Aurora A (PV3612) were purchased from Invitrogen (Carlsbad, Calif., USA). Kinase dosage and Z′-LYTE™ substrate for each kinase assay is as follows: CDK2/cyclinA-8 ng/reaction, Ser/Thr 12 Peptide; CDK1/cyclinB-0.8 ng/reaction, Ser/Thr 12 Peptide, CDK5/p35-0.8 ng/reaction, Ser/Thr 12 Peptide, and Aurora A-16 ng/reaction, Ser/Thr 1 Peptide. All enzymatic assays were performed using Z′-LYTE™ Kinase Assay Kits and were carried out following protocols provided by Invitrogen. To prepare stock solutions, compounds were dissolved at 10 mM in 100% DMSO and stored at 4° C. in amber glass vials. Enzyme reactions were initiated by adding recombinant enzyme and Z′-LYTE™ Ser/Thr peptide substrate and ATP mixture to 384-well plates containing diluted test compounds. Kinase and corresponding peptide substrate were incubated for 1 hr at room temperature in the presence of varying amounts of test compound with reaction buffer (20 μM ATP, […] [pH 7.5], 5 mM MgCl2, 0.5 mM EGTA, 0.005% Brij-35). Development buffer was added and incubated for another one hour at room temperature. Reactions were terminated by addition of stop buffer, and fluorescence emission intensity ratio 445 nm/520 nm (excited at 400 nm) was quantified by VICTOR-3 Multilabel Reader (Perkin-Elmer, Waltham, Mass., USA). Phosphorylation was calculated from the emission ratio. IC50 was determined using Sigmoid curve-fitting software Origin 6.0 (MicroCal, LLC, Northampton, Mass., USA).

CDK1/cyclinB = molecular target: T2, CDK1/cyclinB (Homo sapiens, UniProt P06493); assay: Z'-LYTE kinase assay CDK1/cyclinB; format: biochemical; settings: Table III; read-out: Target biochemical activity IC50 CDK1
T2 construct: purchased Invitrogen PV3292
Experimental: as §1

SRC = SRC (Homo sapiens, UniProt P12931); assay: Kinase assay SRC (Table III); settings: read-out: Target biochemical activity IC50 SRC
Experimental: (§2) Kinase assays. The compounds were tested for their ability to inhibit kinases.

TSSK1 = molecular target: T3, TSSK1 (Homo sapiens, UniProt Q9BXA7); assay: Kinase assay TSSK1 (Table III); settings: read-out: Target biochemical activity IC50 TSSK1
T3 sequence (Q9BXA7 1-367): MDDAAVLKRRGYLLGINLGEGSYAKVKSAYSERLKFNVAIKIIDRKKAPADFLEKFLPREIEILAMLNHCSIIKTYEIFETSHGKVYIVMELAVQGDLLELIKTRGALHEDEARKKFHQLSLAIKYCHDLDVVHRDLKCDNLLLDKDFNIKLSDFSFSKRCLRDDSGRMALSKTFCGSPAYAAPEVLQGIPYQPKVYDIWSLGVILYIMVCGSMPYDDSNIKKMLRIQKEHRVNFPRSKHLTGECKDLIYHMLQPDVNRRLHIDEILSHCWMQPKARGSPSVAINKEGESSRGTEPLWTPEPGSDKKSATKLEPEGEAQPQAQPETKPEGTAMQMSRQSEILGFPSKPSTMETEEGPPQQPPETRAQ
Experimental: as §2

Aurora A = molecular target: T4, Aurora A (Homo sapiens, UniProt O14965); assay: Z'-LYTE kinase assay Aurora A; format: biochemical; settings: Table III; read-out: Target biochemical activity IC50 Aurora A
T4 construct: purchased Invitrogen PV3612
T4 sequence (O14965 1-403): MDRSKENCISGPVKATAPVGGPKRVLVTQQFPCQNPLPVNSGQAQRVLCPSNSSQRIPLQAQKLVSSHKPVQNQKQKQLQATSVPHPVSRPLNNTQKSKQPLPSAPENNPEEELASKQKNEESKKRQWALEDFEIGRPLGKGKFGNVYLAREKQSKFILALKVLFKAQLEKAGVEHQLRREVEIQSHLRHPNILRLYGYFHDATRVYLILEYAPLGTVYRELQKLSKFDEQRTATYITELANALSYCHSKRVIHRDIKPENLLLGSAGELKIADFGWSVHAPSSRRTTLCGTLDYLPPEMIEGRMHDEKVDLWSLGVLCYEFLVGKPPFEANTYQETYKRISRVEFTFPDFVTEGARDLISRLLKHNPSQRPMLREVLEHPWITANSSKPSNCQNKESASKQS
Experimental: as §1

CDK7 = CDK7 (Homo sapiens, UniProt P50613); assay: Kinase assay CDK7 (Table III); settings: read-out: Target biochemical activity IC50 CDK7
Experimental: as §2

CDK5/p35 = molecular target: T5, CDK5/p35 (Homo sapiens, UniProt Q00535); assay: Z'-LYTE kinase assay CDK5/p35; format: biochemical; settings: Table III; read-out: Target biochemical activity IC50 CDK5
T5 construct: purchased Invitrogen PV3000
Experimental: as §1

Aurora B = Aurora B (Homo sapiens, UniProt Q96GD4); assay: Kinase assay Aurora B (Table I); format: biochemical; settings: Table III; read-out: Target biochemical activity IC50 Aurora B
Experimental: [The source words this procedure for another target and reports this target under the same test.] as §1

CDK9 = CDK9 (Homo sapiens, UniProt P50750); assay: CDK9 inhibitory activity, kinase assays (Table III); settings: read-out: Target biochemical activity IC50 CDK9
Experimental: as §2

Sequence of CDK7 (P50613 whole entry, species assumed): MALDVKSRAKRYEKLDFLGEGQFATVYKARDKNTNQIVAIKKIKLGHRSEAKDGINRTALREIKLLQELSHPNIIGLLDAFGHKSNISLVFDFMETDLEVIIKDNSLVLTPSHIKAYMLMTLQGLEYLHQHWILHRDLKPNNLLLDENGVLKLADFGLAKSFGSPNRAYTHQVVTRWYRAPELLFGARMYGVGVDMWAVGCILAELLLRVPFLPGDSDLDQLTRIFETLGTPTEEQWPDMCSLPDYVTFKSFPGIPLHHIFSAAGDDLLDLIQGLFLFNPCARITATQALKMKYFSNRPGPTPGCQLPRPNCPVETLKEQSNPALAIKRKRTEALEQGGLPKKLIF
Sequence of CDK7 (P51946 whole entry partner, species assumed): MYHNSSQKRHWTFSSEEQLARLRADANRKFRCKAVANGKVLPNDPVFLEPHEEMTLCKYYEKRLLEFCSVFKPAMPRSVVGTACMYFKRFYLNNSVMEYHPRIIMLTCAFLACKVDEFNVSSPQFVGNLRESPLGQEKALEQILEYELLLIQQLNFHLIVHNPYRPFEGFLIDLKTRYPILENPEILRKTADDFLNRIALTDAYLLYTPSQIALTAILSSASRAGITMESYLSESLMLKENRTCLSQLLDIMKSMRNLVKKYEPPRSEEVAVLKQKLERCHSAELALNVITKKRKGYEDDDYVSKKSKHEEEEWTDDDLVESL
Sequence of CDK7 (P51948 whole entry partner, species assumed): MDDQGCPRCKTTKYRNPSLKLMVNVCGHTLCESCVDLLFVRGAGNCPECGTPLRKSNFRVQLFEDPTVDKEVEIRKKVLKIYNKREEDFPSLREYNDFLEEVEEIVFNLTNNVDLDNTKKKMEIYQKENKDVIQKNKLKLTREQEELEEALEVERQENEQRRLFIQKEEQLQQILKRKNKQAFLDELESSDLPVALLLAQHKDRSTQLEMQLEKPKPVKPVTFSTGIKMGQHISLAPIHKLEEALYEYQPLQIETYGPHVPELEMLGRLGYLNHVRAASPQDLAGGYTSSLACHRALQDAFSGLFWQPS
T5 sequence (Q00535 whole entry): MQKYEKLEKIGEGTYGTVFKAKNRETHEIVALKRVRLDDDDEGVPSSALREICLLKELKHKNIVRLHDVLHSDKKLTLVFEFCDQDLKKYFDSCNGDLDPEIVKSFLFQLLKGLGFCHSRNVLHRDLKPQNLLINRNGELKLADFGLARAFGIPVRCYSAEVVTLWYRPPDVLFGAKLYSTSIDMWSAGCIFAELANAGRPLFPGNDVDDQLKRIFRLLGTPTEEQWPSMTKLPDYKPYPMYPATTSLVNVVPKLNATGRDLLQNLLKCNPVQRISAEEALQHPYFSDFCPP
T5 sequence (Q15078 whole entry partner): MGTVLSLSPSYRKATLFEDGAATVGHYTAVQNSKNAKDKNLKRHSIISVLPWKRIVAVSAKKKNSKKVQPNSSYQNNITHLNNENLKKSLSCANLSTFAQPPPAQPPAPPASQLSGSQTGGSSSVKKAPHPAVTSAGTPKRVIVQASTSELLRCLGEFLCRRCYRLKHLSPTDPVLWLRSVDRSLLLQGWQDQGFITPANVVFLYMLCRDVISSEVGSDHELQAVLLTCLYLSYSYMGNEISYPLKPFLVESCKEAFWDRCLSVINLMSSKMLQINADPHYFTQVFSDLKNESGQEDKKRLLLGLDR
T2 sequence (P06493 whole entry): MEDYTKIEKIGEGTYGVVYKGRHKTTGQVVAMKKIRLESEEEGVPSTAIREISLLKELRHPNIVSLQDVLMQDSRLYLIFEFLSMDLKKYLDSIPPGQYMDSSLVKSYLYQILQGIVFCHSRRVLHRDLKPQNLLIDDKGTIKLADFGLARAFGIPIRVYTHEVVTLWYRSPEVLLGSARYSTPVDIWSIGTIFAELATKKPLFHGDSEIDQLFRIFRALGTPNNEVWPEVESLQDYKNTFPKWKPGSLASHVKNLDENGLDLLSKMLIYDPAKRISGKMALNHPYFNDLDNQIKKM
T2 sequence (P14635 whole entry partner): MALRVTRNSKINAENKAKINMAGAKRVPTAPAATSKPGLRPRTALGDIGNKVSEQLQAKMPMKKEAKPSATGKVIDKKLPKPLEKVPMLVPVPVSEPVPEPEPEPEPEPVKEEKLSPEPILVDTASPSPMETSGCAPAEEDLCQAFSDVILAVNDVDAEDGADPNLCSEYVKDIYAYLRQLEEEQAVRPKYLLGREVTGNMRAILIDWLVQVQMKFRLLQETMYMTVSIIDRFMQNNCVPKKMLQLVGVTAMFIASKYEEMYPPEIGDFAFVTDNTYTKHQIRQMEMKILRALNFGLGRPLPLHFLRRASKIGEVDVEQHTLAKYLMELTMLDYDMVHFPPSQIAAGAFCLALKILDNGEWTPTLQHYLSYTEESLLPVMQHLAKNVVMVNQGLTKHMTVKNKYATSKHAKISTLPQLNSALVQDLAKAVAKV
Sequence of CDK9 (P50750 whole entry, species assumed): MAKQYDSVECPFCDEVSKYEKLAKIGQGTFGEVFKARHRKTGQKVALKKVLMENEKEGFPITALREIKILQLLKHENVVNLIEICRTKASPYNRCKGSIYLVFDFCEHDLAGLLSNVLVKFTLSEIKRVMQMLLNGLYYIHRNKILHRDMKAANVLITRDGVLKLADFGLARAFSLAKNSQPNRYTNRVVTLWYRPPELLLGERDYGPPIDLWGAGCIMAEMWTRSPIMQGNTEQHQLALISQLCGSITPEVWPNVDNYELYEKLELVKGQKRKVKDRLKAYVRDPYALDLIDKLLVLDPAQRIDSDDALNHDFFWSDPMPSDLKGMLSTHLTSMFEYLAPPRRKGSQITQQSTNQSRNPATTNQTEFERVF
Sequence of CDK9 (O60563 whole entry partner, species assumed): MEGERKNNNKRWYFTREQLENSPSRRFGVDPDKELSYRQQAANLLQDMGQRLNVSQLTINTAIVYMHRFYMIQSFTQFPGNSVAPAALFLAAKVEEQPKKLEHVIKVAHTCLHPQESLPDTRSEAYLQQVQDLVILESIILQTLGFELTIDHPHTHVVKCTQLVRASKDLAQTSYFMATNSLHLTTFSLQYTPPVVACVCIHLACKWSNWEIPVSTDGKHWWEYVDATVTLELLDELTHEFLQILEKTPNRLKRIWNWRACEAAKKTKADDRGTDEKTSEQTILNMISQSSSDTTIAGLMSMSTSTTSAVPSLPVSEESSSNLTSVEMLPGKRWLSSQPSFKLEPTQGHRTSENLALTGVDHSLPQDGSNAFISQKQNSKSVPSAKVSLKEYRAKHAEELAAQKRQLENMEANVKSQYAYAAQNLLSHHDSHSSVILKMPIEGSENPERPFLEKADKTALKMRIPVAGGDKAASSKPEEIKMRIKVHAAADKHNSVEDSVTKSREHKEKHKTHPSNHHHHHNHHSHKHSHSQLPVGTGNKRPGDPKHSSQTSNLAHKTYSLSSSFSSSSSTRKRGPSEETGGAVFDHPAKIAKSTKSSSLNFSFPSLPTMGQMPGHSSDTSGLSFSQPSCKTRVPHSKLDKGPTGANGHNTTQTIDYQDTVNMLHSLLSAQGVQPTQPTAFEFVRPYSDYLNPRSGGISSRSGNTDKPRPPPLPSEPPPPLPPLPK
Sequence of Aurora B (Q96GD4 whole entry): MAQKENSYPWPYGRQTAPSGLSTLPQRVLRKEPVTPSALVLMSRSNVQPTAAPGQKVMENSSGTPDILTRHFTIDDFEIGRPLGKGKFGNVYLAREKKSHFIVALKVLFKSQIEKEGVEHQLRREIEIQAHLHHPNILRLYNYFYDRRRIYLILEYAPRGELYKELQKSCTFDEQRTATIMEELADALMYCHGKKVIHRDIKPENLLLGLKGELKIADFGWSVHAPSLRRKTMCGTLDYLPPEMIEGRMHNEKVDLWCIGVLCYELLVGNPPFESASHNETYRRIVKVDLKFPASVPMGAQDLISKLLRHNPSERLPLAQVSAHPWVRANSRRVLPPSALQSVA
Sequence of SRC (P12931 whole entry, species assumed): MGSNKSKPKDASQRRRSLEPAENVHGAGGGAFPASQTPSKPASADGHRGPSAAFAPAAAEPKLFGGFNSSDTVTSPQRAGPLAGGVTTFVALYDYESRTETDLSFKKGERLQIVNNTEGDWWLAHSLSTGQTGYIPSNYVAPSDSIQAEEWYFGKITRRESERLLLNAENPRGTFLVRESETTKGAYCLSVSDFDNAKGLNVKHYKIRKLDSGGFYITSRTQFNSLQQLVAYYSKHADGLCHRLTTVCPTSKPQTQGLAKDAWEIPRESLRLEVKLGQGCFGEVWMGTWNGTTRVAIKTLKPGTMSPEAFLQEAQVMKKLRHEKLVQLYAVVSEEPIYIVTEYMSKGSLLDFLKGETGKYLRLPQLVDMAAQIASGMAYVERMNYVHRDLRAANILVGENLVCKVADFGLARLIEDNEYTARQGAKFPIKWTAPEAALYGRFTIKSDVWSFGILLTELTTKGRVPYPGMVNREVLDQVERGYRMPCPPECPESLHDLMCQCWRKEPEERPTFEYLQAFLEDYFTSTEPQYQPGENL

## CCn1cc(-c2ccnc(Nc3ccc(O)cc3)n2)c2ccnc(Cl)c21 [SG49]
CDK2/cyclinA
  IC50: 16 nM
CDK1/cyclinB
  IC50: 190 nM
SRC
  IC50: 4560 nM
TSSK1
  IC50: 1490 nM
Aurora A
  IC50: 2460 nM
CDK7
  IC50: > 10000 nM
CDK5/p35
  IC50: 350 nM
Aurora B
  IC50: > 10000 nM
CDK9
  IC50: 95 nM
